Data reported in publication PMC4466507, “Seneca Valley Virus 3C^pro Substrate Optimization Yields Efficient Substrates for Use in Peptide-Prodrug Therapy” (PLoS ONE, 2015).
Several values for one entry are separate records, joined by “and”; a condition that tells them apart may be missing. Identical values can stand only once.

Legend:
[1] = target: T1, SVV-001 3C^pro produced during SVV-001 infection of NCI-H446 cells (Seneca Valley virus, UniProt Q155Z9); experiment: Fluorescently quenched peptide cellular assay (SVV-001 infected NCI-H446 cells); format: cell-based, Seneca Valley Virus (SVV-001); settings: FQ peptide 3 μM; for cleavage (increase in fluorescence) with SVV-001 infected cells / cleavage (increase in fluorescence) with uninfected cells: 3 hours at 37°C
T1 construct: 3C^pro released during a lytic viral infection is the sole source of the 3C^pro; endogenous in cells; host or cells: NCI-H446 (human SCLC) cells infected with wild-type SVV-001 for 8 h
Experimental: (§1) All SVV-001 stocks were cultured and purified as described previously and virus titers were determined by tissue culture infective dose (TCID50). The SCLC cell line, NCI-H446 (ATCC) was cultured in RPMI 1640 media (Quality Biological) supplemented with 10% fetal bovine serum (HyClone). The cell line NCI-H446 is routinely tested and authenticated by short tandem repeat (STR) analysis by DDC Medical and was last authenticated six months before submission.
A similar cellular assay was performed as described in the previous paragraph with the exception of using the CPQ2/5-FAM L/VP4.1 and NHL fluorogenic peptides described earlier. After an 8 hour infection with SVV-001, NCI-H446 cells were removed from the cell culture dish using phenol-red free RPMI 1640 media supplemented with 0.1% ethylenediaminetetraacetic acid (EDTA, Sigma) to aid in gentle cell detachment, and pelleted via centrifugation. Pellets were resuspended in phenol-red free RPMI 1640 prior to plating in black opaque 96 well plates as above. CPQ2/5-FAM peptides, L/VP4.1 or NHL were added at a final concentration of 3 μM to plated cells and incubated for 3 hours at 37°C. Fluorescence emissions at 520 nm, corresponding to the liberated 5-FAM fluorophore peptide cleavage product was followed after excitation at 490 nm by a Synergy Neo multimode plate reader (Biotek) every 60 s. The experiment was performed in triplicate in a 96 well flat bottom black opaque plate and average fluorescence units were used to observe changes in fluorescence. Standard curves of 5-FAM fluorescence vs. concentration were generated to convert the relative fluorescence units to moles of cleaved product generated during the reaction. Initial rates of hydrolysis were calculated from data during the first 10 minutes of the reaction and averaged from 3–4 separate experiments. Uncertainty is expressed by standard deviation and shown with error bars.

Plasma stability assay = format: in vitro ADME; settings: pooled, 50% plasma/water, peptide 20 μM, 1 hour at 37°C; for change in fluorescence relative to plasma alone: human plasma, fluorescence read-out (ex 490 nm/em 520 nm) every 60 s, triplicate
Experimental: Human plasma was obtained from pooled discarded clinical samples less than 6 hrs old. Human plasma was isolated from whole blood by centrifugation, pooled, and diluted 1:1 with distilled H2O (Gibco). The L/VP4.1 and NHL fluorogenic peptides (20 μM) were incubated with plasma for 1 h at 37°C. Fluorescence emissions were obtained as described above by a DTX 880 multimode detector ([…]) every 60 s. Experiments were performed in triplicate in a 96 well flat bottom black opaque plate and the average fluorescence units were used to observe changes in fluorescence. Uncertainty is expressed by standard deviation.

[2] = target: T1, SVV-001 3C^pro produced during SVV-001 infection of NCI-H446 cells; experiment: FRET substrate cellular assay (SVV-001 infected NCI-H446 cells); format: cell-based, Seneca Valley Virus (SVV-001); settings: FP substrate 200 nM, NCI-H446 cells after 8 h SVV-001 infection, 3 h at 37°C
Experimental: as §1
Cells (1.6 × 10^7) were plated on a 150 mm cell culture dish (Corning) and allowed to recover overnight at 37°C. Each plate was inoculated with SVV-001 at the TCID50 and infected cells were incubated at 37°C for 8 h. After aspiration of the media, cells were mechanically lifted from the plate in phenol-red free RPMI 1640 media (Gibco) and pelleted by centrifugation. […] During the substrate incubation the change in FRET was measured with a Tecan Safire fluorimeter as described above. Conversion of the L/VP4.1 substrate to cleaved substrate was calculated by dividing the change in the FRET ratio at each time point by the total change in the FRET ratio corresponding to complete cleavage of the substrate. The conversion of the NHL substrate was similarly determined by dividing the change in the FRET ratio of the NHL at each time point by the total change in the FRET ratio of the L/VP4.1 substrate corresponding to complete cleavage. […]

SVV-001 3C^pro = target: T2, SVV-001 3C^pro (Seneca Valley virus, UniProt Q155Z9); experiment: FRET substrate cleavage assay with purified recombinant SVV-001 3C^pro; format: biochemical, Seneca Valley Virus (SVV-001); settings: for kcat/KM: CyPet/YPet FRET fusion protein substrate 200 nM, PBS pH 7.4, 30°C, average of 5–7 experiments, uncertainty SD, N/A where no cleavage was measurable; for kcat/KM / cleavage by SVV-001 3C^pro (result in words): 3 h; for Relative to WT: kcat/KM relative to endogenous L/VP4 FRET substrate; for cleavage by SVV-001 3C^pro (result in words): FRET fusion protein substrate 200 nM, 30°C
T2 construct: made in house; host or cells: E. coli BL21 AI
Experimental: (§2) Reactions were performed in PBS, pH 7.4 and 200 nM FRET substrate in a total volume of 100 μL. Substrates were incubated with 250 nM SVV-001 3C^pro at 30°C for 3 h. Human rhinovirus (HRV) control substrate was incubated with recombinant HRV 3C^pro under the same conditions. Fluorescence emissions at 475 nm and 527 nm, corresponding to CyPet and YPet respectively, were followed after excitation at 433 nm every 180 s by a Safire fluorimeter (Tecan). All experiments were performed in triplicate. FRET ratios (YPet fluorescence/CyPet fluorescence) were calculated at each timepoint. Conversion of each substrate to cleaved substrate was calculated by dividing the change in the FRET ratio at each timepoint by the total change in the FRET ratio corresponding to complete cleavage of the substrate. Using the equation from Boulware et al., conversion data was plotted vs. time (s) and fit with the equation: […] where [E] is the 3C^pro concentration (M) and t is time (s). The second order rate constant (k cat/K M) was determined by the curve fit using GraphPad Prism software. Reported values are the average k cat/K M values of 5–7 experiments. Uncertainty is expressed by standard deviation. Error bars on data points were removed for figure clarity.

HRV 3C^pro = target: T3, HRV 3C^pro (Human rhinovirus 14, UniProt P03303); experiment: FRET substrate cleavage assay with recombinant HRV 3C^pro; format: biochemical
T3 construct: Recombinant HRV 3C Protease was purchased from Sigma; purchased Sigma
Experimental: as §2
Supplementary file pone.0129103.s004.tif: S4 Fig Comparison of SVV 3C^pro- L/VP4.1 Substrate Specificity to Selected Picornavirus Protease-Substrate Pairs. A. Substrates L/VP4.1 (labeled SVV), HRV, and Coxsackievirus (CAV) 2C/3A substrate (labeled CAV) with amino acid sequence MEALFQ↓GP were incubated with 250 nM SVV 3C^pro (black data points), HRV 3C^pro (blue data points), or CAV 3C^pro (red data points) for 3 hours at 30°C. CAV 3C^pro was cloned, overexpressed, and purified using the same methods described for SVV 3C^pro in the Methods section. The decrease in FRET was measured in real time using a fluorimeter and data was converted to display fraction of substrate converted to hydrolyzed substrate over time. Data points represent the average of three replicates at each time point. […]

CAV 3C^pro = experiment: FRET substrate cleavage assay with CAV 3C^pro; format: biochemical, Coxsackie A virus (CAV); settings: 250 nM CAV 3C^pro, 3 hours at 30°C
Experimental: Supplementary file pone.0129103.s004.tif: S4 Fig Comparison of SVV 3C^pro- L/VP4.1 Substrate Specificity to Selected Picornavirus Protease-Substrate Pairs. A. Substrates L/VP4.1 (labeled SVV), HRV, and Coxsackievirus (CAV) 2C/3A substrate (labeled CAV) with amino acid sequence MEALFQ↓GP were incubated with 250 nM SVV 3C^pro (black data points), HRV 3C^pro (blue data points), or CAV 3C^pro (red data points) for 3 hours at 30°C. CAV 3C^pro was cloned, overexpressed, and purified using the same methods described for SVV 3C^pro in the Methods section. The decrease in FRET was measured in real time using a fluorimeter and data was converted to display fraction of substrate converted to hydrolyzed substrate over time. Data points represent the average of three replicates at each time point. B. Heat map depicting relative rates of cleavage for protease-substrate pairs compared to the native protease-substrate pair. (TIF) Click here for additional data file.

[3] = NCI-H446 cells after 8 hour SVV-001 infection
[4] = FRET fusion protein substrate, 250 nM SVV-001 3C^pro

T2 sequence (Q155Z9 1509-1719): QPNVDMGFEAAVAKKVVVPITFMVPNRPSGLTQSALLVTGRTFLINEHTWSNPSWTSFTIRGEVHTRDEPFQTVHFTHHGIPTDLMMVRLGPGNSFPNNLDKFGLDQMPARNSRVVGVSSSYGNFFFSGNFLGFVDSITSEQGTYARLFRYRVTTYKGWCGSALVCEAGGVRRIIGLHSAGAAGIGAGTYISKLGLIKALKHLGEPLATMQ
T1 sequence (Q155Z9 1508-1719): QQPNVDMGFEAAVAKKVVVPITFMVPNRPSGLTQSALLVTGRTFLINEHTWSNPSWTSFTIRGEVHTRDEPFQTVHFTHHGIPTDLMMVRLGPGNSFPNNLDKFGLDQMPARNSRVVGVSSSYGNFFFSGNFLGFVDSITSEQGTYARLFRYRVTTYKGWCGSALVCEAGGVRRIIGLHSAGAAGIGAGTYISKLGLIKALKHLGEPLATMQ
T3 sequence (P03303 1538-1719): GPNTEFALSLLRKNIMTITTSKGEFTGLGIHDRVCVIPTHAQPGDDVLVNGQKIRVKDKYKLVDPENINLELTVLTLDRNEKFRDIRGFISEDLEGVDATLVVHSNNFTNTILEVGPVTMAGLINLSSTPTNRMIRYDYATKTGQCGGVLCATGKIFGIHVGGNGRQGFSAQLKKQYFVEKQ

For “CPQ2-GGSGGS-K(5FAM)-KK-NH2 [NHL FQ peptide, non-hydrolysable linker peptide CPQ2-GGSGGS-K(5FAM)-KK-NH2, negative control, reference compound]”, the “cleavage (increase in fluorescence) with SVV-001 infected cells” value [1, 3] was “not cleaved” and the “cleavage (increase in fluorescence) with uninfected cells” value ([1]; uninfected NCI-H446 cells) was “not cleaved”.
For “CPQ2-IVYELQGP-K(5FAM)-KK-NH2 [L/VP4.1 FQ peptide]”, the “change in fluorescence relative to plasma alone” value (Plasma stability assay) was “no significant change in fluorescence”, the “stability in human plasma (conclusion)” value (Plasma stability assay; fluorescence read-out) was “stable” and the “initial rate of reaction, SVV infected cells” value ([1]; NCI-H446 cells after 8 hour SVV-001 infection, 37°C, first 10 minutes, averaged from 3–4 experiments, SD) was 0.446 ± 0.0056 pmol/s. For the same substance, the “cleavage (increase in fluorescence) with SVV-001 infected cells” value [1, 3] was “significant increase in fluorescence”, the “initial rate of reaction, uninfected cells” value ([1]; uninfected NCI-H446 cells, 37°C, first 10 minutes, averaged from 3–4 experiments, SD) was 0.168 ± 0.0025 pmol/s and the “cleavage (increase in fluorescence) with uninfected cells” value ([1]; uninfected NCI-H446 cells) was “did not show an appreciable increase in fluorescence”.
In the case of “GGSGGS [NHL, non-hydrolysable linker FP substrate (GGSGGS), negative control, reference compound]”, the “change in fluorescence relative to plasma alone” value (Plasma stability assay) is reported as “no significant change in fluorescence” and the “loss of FRET (cleavage) with SVV-001 infected cells” value [2] is reported as “did not show a loss of FRET”.
In the case of “IVFELQGP [L/VP4.3, L/VP4.1 FRET substrate with P4 Y→F substitution]”, the kcat/KM (SVV-001 3C^pro; 250 nM SVV-001 3C^pro) is reported as 12160 M⁻¹ s⁻¹, the “cleavage less efficient than the L/VP4.1 Pro variant” value (SVV-001 3C^pro; [4]) is reported as 30% and the “Relative to WT” value (SVV-001 3C^pro) is reported as 6.3.
With “IVMELQGP [L/VP4.4, L/VP4.1 FRET substrate with P4 Y→M substitution]” the kcat/KM (SVV-001 3C^pro; 250 nM SVV-001 3C^pro) was 10344 M⁻¹ s⁻¹, the “cleavage less efficient than the L/VP4.1 Pro variant” value (SVV-001 3C^pro; [4]) was 40% and the “Relative to WT” value (SVV-001 3C^pro) was 5.3.
With “IVYELQGN [L/VP4, endogenous SVV-001 3C^pro cleavage site IVYELQGN cloned between CyPet and YPet as FRET fusion protein substrate]” the kcat/KM (SVV-001 3C^pro; 250 nM SVV-001 3C^pro) was 1932 ± 183 M⁻¹ s⁻¹ and 1932 M⁻¹ s⁻¹ and the “cleavage by SVV-001 3C^pro (result in words)” value (from here on “cleavage by SVV-001 3C^pro”) (SVV-001 3C^pro; 250 nM SVV-001 3C^pro) was “efficiently cleaved”.
For “IVYELQGP [L/VP4.1, L/VP4 with Q↓GP (P2’ N→P substitution), FRET fusion protein substrate]”, the “turnover by non-native 3C protease (HRV 3C^pro)” value (HRV 3C^pro; FRET substrate, 250 nM HRV 3C^pro, 3 hours at 30°C) was “no turnover”, the “loss of FRET (cleavage) with SVV-001 infected cells” value [2] was “Loss of FRET” and the “turnover by non-native 3C protease (CAV 3C^pro)” value (CAV 3C^pro) was “no turnover”. The kcat/KM (SVV-001 3C^pro; 250 nM SVV-001 3C^pro) was 17446 ± 2203 M⁻¹ s⁻¹ and 17446 M⁻¹ s⁻¹, the “increase of kcat/KM relative to L/VP4” value (SVV-001 3C^pro; [4]) was “approximately 9 fold” and the “Relative to WT” value (SVV-001 3C^pro) was 9.0.
For “IVYELQ↓SP [L/VP4.9, P1’ GN→SP substituted form of L/VP4 (IVYELQ↓SP) cloned between CyPET and YPET]”, the “cleavage by SVV-001 3C^pro” value (SVV-001 3C^pro; 250 nM SVV-001 3C^pro) was “increased turnover efficiency over L/VP4, but was inferior to L/VP4.1”.
With “IVYEPQGP [L/VP4.2, L/VP4.1 FRET substrate with P2 L→P substitution]” the “cleavage by SVV-001 3C^pro” value (SVV-001 3C^pro; 250 nM SVV-001 3C^pro) was “not efficiently cleaved in 3 hours”.
With “KLFKMQGP [2B/2C, endogenous SVV-001 cleavage site KLFKMQGP cloned between CyPet and YPet as FRET fusion protein substrate]” the kcat/KM (SVV-001 3C^pro; 250 nM SVV-001 3C^pro) was 1204 ± 146 M⁻¹ s⁻¹ and 1204 M⁻¹ s⁻¹ and the “cleavage by SVV-001 3C^pro” value (SVV-001 3C^pro; 250 nM SVV-001 3C^pro) was “efficiently cleaved”.
For “LEVLFQGP [HRV, optimized human rhinovirus 3C^pro FP substrate (LEVLFQGP), positive control]”, the kcat/KM (HRV 3C^pro; CyPet/YPet FRET fusion protein substrate 200 nM, recombinant HRV 3C^pro, PBS pH 7.4, 30°C, 3 h, average of 5–7 experiments, uncertainty SD) was 5079 ± 528 M⁻¹ s⁻¹ and 5079 M⁻¹ s⁻¹ and the “kcat/KM higher than either SVV FP substrate (L/VP4, 2B/2C)” value (HRV 3C^pro; HRV FP substrate with HRV 3C^pro versus SVV FP substrates with SVV-001 3C^pro) was 3-4 fold.
With “VYELQGP [L/VP4.5, P6 truncation of L/VP4.1 FRET substrate]” the kcat/KM (SVV-001 3C^pro; 250 nM SVV-001 3C^pro) was 9839 M⁻¹ s⁻¹, the “decrease of turnover efficiency of cleavage from L/VP4.1” value (SVV-001 3C^pro; [4]) was ~2 fold and the “Relative to WT” value (SVV-001 3C^pro) was 5.1.
In the case of “YELQGP [L/VP4.6, P5/P6 truncation of L/VP4.1 FRET substrate]”, the kcat/KM (SVV-001 3C^pro; 250 nM SVV-001 3C^pro) is reported as 1939 M⁻¹ s⁻¹ and the “Relative to WT” value (SVV-001 3C^pro) is reported as 1.0.
